{"source": "patent US9737502B2", "about": "“Calebin A for hepatic steatosis” (SAMI LABS LIMITED, priority 2011, dated 2017)", "key": {"TNF-α": {"system": "TNF-α", "assay": "Intracellular TNF-α in LPS-stimulated murine neutrophils (flow cytometry)", "format": "cell-based", "details": "100 μg/ml", "procedure": "The present inventors also adduce extra evidence to support the ability of Calebin A to suppress intracellular TNF and extracellular IL-1β in murine neutrophil systems (Table II, Table III). Neutrophils are isolated by histopaque gradient method tested for their ability to produce in vitro TNF-α following stimulation with Lipopolysaccharide (LPS). The cells were incubated with phycoerythrin (PE)-labeled anti-mouse TNF-α in the dark, and after being washed with sterile PBS, samples were resuspended in PBS (pH 7.4) and acquired directly on the flow cytometer (BDLSR; Becton Dickinson). A fluorescence trigger was set on the PE […] parameter of the gated neutrophil populations (10,000 events). Rolipram at 100 μg/ml was used as standard inhibitor of TNF-α in this study. Fluorescence compensation, data analysis, and data presentation were performed using Cell Quest Pro software (Becton Dickinson)."}, "IL-1β": {"system": "IL-1β", "assay": "Extracellular IL-1β in LPS-stimulated murine neutrophils", "format": "cell-based", "details": "100 μg/ml"}}, "data": [{"smiles": "COc1ccc(C2CNC(=O)C2)cc1OC1CCCC1", "note": "(stereo not shown) [Rolipram, reference compound]", "values": [{"measurement": "% Activity (suppression of TNF-α expression)", "setting": "TNF-α", "result": 72.13, "unit": "%↓"}, {"measurement": "Expression of TNF-α Mean ± S.E", "setting": "TNF-α; LPS Control 2.62 ± 0.01", "result": "0.73 ± 0.09"}, {"measurement": "% Activity (suppression of IL-1 β expression)", "setting": "IL-1β", "result": 56.52, "unit": "%↓"}, {"measurement": "IL-1β Concentration", "setting": "IL-1β; LPS Control 51.80 ± 2.18", "result": "22.52 ± 1.60", "unit": "pg/mL"}]}]}
